From US4456752A, “Process for the preparation of 9-hydrazono-6,7,8,9-tetrahydro-4H-pyro[1,2-a]pyrimidine-4-one compounds, the salts and hydrates thereof” (Chinoin Gyogyszer es Vegyeszeti Termekek Gyara R.T., priority 1979, dated 1984)

How the values were obtained:
[1] = system: allergic reactions induced by the antigen-antibody interaction; test: PCA test (Ovary), antiallergic activity on rats; type: in vivo; conditions: for ED50: Rattus norvegicus, iv, rats
Method: The test is carried out by the PCA test-method (Ovary: J. Immun. 81, 355, 1958) and the Church-test (British J. Pharm. 46, 56-66, 1972; Immunology 29, 527-534, 1975) and as a reference substance disodium chromoglycate is used. The test was carried out on rats.

allergic symptoms = conditions: oral / inhaler; background statement; cited from earlier work

SMILES	ED50 [1]	oral activity (PCA test data, in words) ([1]; oral versus i.v.)	effectiveness by route (antiasthmatic agent, in words) (allergic symptoms)
CCOc1ccc(NN=C2CCC(C)n3c2ncc(C(=O)O)c3=O)cc1 (racemic) [(±)-9-(4-ethoxyphenyl-hydrazono)-6-methyl-4-oxo-6,7,8,9-tetrahydro-4H--pyrido[1,2-a]pyrimidine-3-carboxylic acid]	0.87 µmol/kg	–	–
Cc1cccc(NN=C2CCC(C)n3c2ncc(C(=O)O)c3=O)c1 (centres unmarked) [6-methyl-9-(3-methylphenyl-hydrazono)-4-oxo-6,7,8,9-tetrahydro-4H--pyrido[1,2-a]-pyrimidine-3-carboxylic acid]	0.42 µmol/kg	–	–
CC1CCC(=NNc2cccc([N+](=O)[O-])c2)c2ncc(C(=O)O)c(=O)n21 (centres unmarked) [6-methyl-9-(3-nitrophenyl-hydrazono-4-oxo-6,7,8,9-tetrahydro-4H--pyrido[1,2-a]-pyrimidine-3-carboxylic acid]	0.52 µmol/kg	–	–
CC1CCC(=NNc2cccc(Cl)c2)c2ncc(C(=O)O)c(=O)n21 (centres unmarked) [9-(3-chlorophenylhydrazono)-6-methyl-4-oxo-6,7,8,9-tetrahydro-4H--pyrido[1,2-a]-pyrimidine-3-carboxylic acid]	0.61 µmol/kg	–	–
CC1CCC(=NNc2ccc(Br)cc2)c2ncc(C(=O)O)c(=O)n21 (centres unmarked) [9-(4-bromophenylhydrazono)-6-methyl-4-oxo-6,7,8,9-tetrahydro-4H--pyrido[1,2-a]-pyrimidine-3-carboxylic acid]	0.82 µmol/kg	–	–
CC1CCC(=NNc2ccc(C(=O)O)cc2)c2ncc(C(=O)O)c(=O)n21 (centres unmarked) [9-(4-carboxyphenyl-hydrazono)-6-methyl-4-oxo-6,7,8,9-tetrahydro-4H--pyrido[1,2-a]pyrimidine-3-carboxylic acid]	7.6 µmol/kg	–	–
O=C(O)c1cc(=O)c2c(OCC(O)COc3cccc4oc(C(=O)O)cc(=O)c34)cccc2o1 [Disodium chromoglycate, 1,3-bis-(2-carboxychromon-6-yl-ox)-2-hydroxypropane, reference compound]	–	effective only when administered intravenously	not effective orally and it produces the desired effect only by using an inhaler
